Assay results taken from publication PMC7732531 (Frontiers in Pharmacology, 2020).
Read-outs that look alike come from different tables or passages of the source.

What was measured:
[1] = human, microsomes, 0 h, 1 μM, pH 7.4
[2] = Aqueous solubility / BCS class; format: physicochemical
in vivo = details: male, rat, po, 1 mg/kg
Method: (§2) The surgical procedure for portal vein catheter insertion was performed according to reference ([Matsuda et al., 2012]). Male SD rats (250–280 g) were purchased from Beijing Vital River Laboratory Animal Technology Co., Ltd. (Beijing, China). Rats were anesthetized with 2% pentobarbital sodium (0.2–0.3 mg/100 g) intraperitoneally dosed. Cannulation into the jugular vein was performed by the method of Murakami reported ([Murakami et al., 2003]) with minor modification. Briefly, an incision of ∼0.5 cm near right clavicle was made and the jugular vein was exposed. Next, this vein was cannulated with ∼12.5 cm of silicone gel tubing (0.6 mm I.D. × 0.9 mm O.D., Skillsmodel Inc., Beijing, China). The other side of the tubing was passed through the back skin. 2.5 cm midline incision was made in the abdominal cavity close to ensiform process and the portal vein was detached. To prevent bleeding, the portal vein was ligated temporarily as the catheter was inserted. The silicone tubing (22 cm, 0.6 mm I.D. × 0.9 mm O.D., Skillsmodel Inc., Beijing, China) was inserted immediately and fixed by a purse-string suture on the portal vein. The time to reperfusion was about 1 min after intercepted blood flow. In addition, a catheter with trumpet-shaped opening was used to prevent the catheter from slipping out of the vessel and minimize the effect on blood flow. Another end of the catheter was passed subcutaneously to the skin close to the scapula.
(§3) Blood samples were collected at 0, 0.083, 0.25, 0.5, 1, 2, 4, 6, 8 and 12 h. Blood (approximately 100 µl) was collected from the jugular and portal veins into tubes containing heparin on ice and centrifuged within 1 h of collection. Plasma was harvested and stored at −20°C for bioanalysis.
(§4) FaFg was calculated using mass balance method and rat portal blood flow (Qpv) of 32 ml/min/kg, where Rb/p is used to convert plasma concentrations to blood concentrations.

TSPO = tested on: TSPO; design: method as in Zhang et al. (2017); details: crude mitochondrial fraction from rat cerebellum, 10 volumes HS buffer; ref Zhang et al. (2017); cited from earlier work
in vitro [3] = format: in vitro ADME; details: human, plasma
Method: (§5) The fraction of unbound YL-IPA08 in plasma and liver microsomes of rat and human, and brain homogenates of rat were determined utilizing Rapid Equilibrium Dialysis method ([Waters et al., 2008]). Rat brain homogenate was harvested in 4-fold volume (w/v) of PBS (pH 7.4). YL-IPA08 were spiked into fresh plasma, rat brain homogenate, liver microsomes (0.2 mg/ml protein) at concentration of 1 µM, and then dialyzed against biomatrices on a shaker at 37°C for 4 h. To avoid the high non-specific binding of YL-IPA08, 0.01% Tween 80 was added in the incubation mixture. At the end of the incubation, protein was precipitated with acetonitrile (containing IS) and analyzed by LC-MS/MS. Phenacetin, quinidine, and warfarin were selected as positive control for the protein binding test.
The unbound fraction of YL-IPA08 in plasma or liver microsomes (ƒu,x) was calculated as shown in Eq. 2, and unbound fraction in the tissue homogenate (ƒu,b) was calculated according to Eq. 3. fu,x = Concbuffer chamber/Concplasma/liver microsomes chamber (2) fu,b = Concbuffer chamber/Concbrain homogenate chamber (3) The measured unbound fractions would be higher when a tissue is homogenized and diluted in buffer, the unbound fractions in an undiluted tissues (ƒu,brain) were calculated using Eq. 4 ([Kalvass and Maurer, 2002]). […]

[4] = Pharmacokinetics in portal and jugular vein double cannulated rats; details: double cannulation rat model, if F a is 100%
Method: as §2, §3, §4

[5] = rat, microsomes, 0 h, 1 μM, pH 7.4
[6] = Blood/plasma partitional ratio, human blood; format: in vitro ADME; details: fresh pooled whole blood with heparin, human whole blood, 37°C, read-out: blood/plasma partitioning (R b/P)
Method: (§1) The blood/plasma partitional ratio (R b/p) in rat and human blood was measured in vitro using fresh pooled blood including heparin. Whole blood was preincubated at 37°C in a water bath, and spiked with YL-IPA08 at 1 µM. The blood samples were incubated at 37°C for 1 h. After incubation, aliquots of 25 µl spiked whole blood were removed, and the remaining blood was centrifuged at 2,000 × g for 10 min, after which 25 µl aliquots of plasma were removed. Obtained blood and plasma samples were spiked with same volume of blank plasma or blood, respectively, and then immediately precipitated by adding 4× volumes of acetonitrile containing IS to get the same matrix. The concentrations of YL-IPA08 in blood and plasma were determined by LC-MS/MS.

[7] = Blood/plasma partitional ratio, rat blood; format: in vitro ADME; details: fresh pooled whole blood with heparin, rat whole blood, 37°C, read-out: blood/plasma partitioning (R b/P)
Method: as §1

in vitro [8] = format: in vitro ADME; details: rat
Method: as §5
The unbound fraction of YL-IPA08 in plasma or liver microsomes (ƒu,x) was calculated as shown in Eq. 2, and unbound fraction in the tissue homogenate (ƒu,b) was calculated according to Eq. 3. fu,x = Concbuffer chamber/Concplasma/liver microsomes chamber (2) fu,b = Concbuffer chamber/Concbrain homogenate chamber (3) The measured unbound fractions would be higher when a tissue is homogenized and diluted in buffer, the unbound fractions in an undiluted tissues (ƒu,brain) were calculated using Eq. 4 ([Kalvass and Maurer, 2002]). Undiluted fu,brain=1/D/((1/fu,brain homogenate)−1)+1/D (4) Where D represents the fold of dilution factor in brain homogenates.

[9] = Bioavailability study in rats (i.v. and p.o.); format: in vivo; details: male, rat, plasma; for MRT last: read-out: MRT(0–t)
Method: Male SD rats (200-240 g) were obtained from Beijing Vital River Laboratory Animal Technology Co., Ltd. Animals were housed in a temperature- and humidity-controlled room with a 12 h light/dark cycle. They were fasted 12 h before the experiments and had ad libitum access to water. The animal experiments were conducted in the Beijing Center for Drug Safety Evaluation and according to a protocol (IACUC-DWZX-2020-691) approved by the Institutional Animal Care and Use Committee of the Center, which followed the guidelines of the Association for Assessment and Accreditation of Laboratory Animal Care International (AAALAC). […] Pharmacokinetic parameters were calculated by the noncompartmental method using WinNonlin 7.0 (Pharsight, CA). The area under the plasma concentration time curve (AUC) from time 0 to the last time point with a measurable concentration (AUC0-t) was calculated by trapezoidal method. Bioavailability (%F) was calculated as the ratio of the mean dose-normalized AUC values for oral and intravenous dosed groups [Fp.o. = […].)]. In vivo plasma clearance and volume of distribution were archived from the pharmacokinetic study via i.v. injection.

[10] = Mass balance study in rats via oral administration; details: rat, feces
[11] = human, microsomes, 0 h, 1 μM, pH 7.4; remark: listed apart in the source
forced swim rats = tested on: forced swim rats; design: method as in Zhang et al., 2017; details: ref Zhang et al., 2017, cited from earlier work

## CCN(Cc1ccccn1)C(=O)Cc1c(-c2ccc(Cl)c(Cl)c2)nc2cc(C)ccn12 [YL-IPA08]
[1]
  percent of remaining: 100.00%
[2]
  aqueous solubility (in words): high aqueous solubility
[2]; from high aqueous solubility and high permeability
  BCS class: BCS class I
In vivo; SD, Plasma concentration
  concentration at 0.5 h: 77 ± 22.7 ng/mL
  concentration at 1 h: 75.5 ± 26.7 ng/mL
  concentration at 2 h: 78.3 ± 38.3 ng/mL
  concentration at 4 h: 34.1 ± 13.6 ng/mL
  concentration at 6 h: 11.7 ± 3.9 ng/mL
  concentration at 8 h: 5.23 ± 1.47 ng/mL
  concentration at 12 h: 1.96 ± 0.66 ng/mL
In vivo; Sprague-Dawley (SD), AUC
  AUC: 441 ± 93 ng·h/mL
TSPO
  IC50: 0.23 nM
In vitro [3]
  fraction unbound at 4 h, 1 µM: 0.001
[4]
  extraction of gut metabolism: 78%
[5]
  percent of remaining: 100.00%
[6]
  blood plasma ratio at 1 h, 1 µM: 1.58 ± 0.06
[7]
  blood plasma ratio at 1 h, 1 µM: 1.12 ± 0.08
In vitro [8]; 4 h, 1 µM
  Concentration, Cbuffer chamber: 168.00 ± 5.66 nM
  Concentration, Cplasma/microsome chamber: 393.00 ± 18.03 nM
  Protein biding (%): 57.14 ± 2.92%
In vitro [8]; microsomes
  fraction unbound at 4 h, 1 µM: 0.428
[9]; SD, iv, i.v. 0.3 mg/kg
  AUC(0-inf): 71.3 ± 12.3 ng·h/mL
  AUC(0-t): 70.6 ± 12.2 ng·h/mL
  clearance: 71.7 ± 11.5 mL/min/kg
  half-life: 1.13 ± 0.07 h
  concentration at 0.083 h: 140 ± 36.2 ng/mL
  concentration at 0.25 h: 38.9 ± 5.41 ng/mL
  concentration at 0.5 h: 18.2 ± 1.29 ng/mL
  concentration at 1 h: 8.44 ± 1.06 ng/mL
  concentration at 2 h: 4.3 ± 0.57 ng/mL
  concentration at 4 h: 1.84 ± 0.39 ng/mL
  concentration at 6 h: 1.09 ± 0.22 ng/mL
  concentration at 8 h: 0.81 ± 0.08 ng/mL
  concentration at 12 h: 0.48 ± 0.06 ng/mL
  MRT last: 1.36 ± 0.11 h
[9]; SD, iv, i.v. 0.3 mg/kg, 0.033 h
  concentration at 0.033 h: 220 ± 32.5 ng/mL
[9]; SD, iv, i.v. 0.3 mg/kg, read-out: Vz
  Vd: 6.98 ± 0.74 L/kg
[9]; SD, po, p.o. 1 mg/kg
  AUC(0-inf): 13.6 ± 4.37 ng·h/mL
  AUC(0-t): 12.5 ± 3.88 ng·h/mL
  Cmax: 5.99 ± 1.36 ng/mL
  Tmax: 3 ± 1.8 min
  half-life: 1.66 ± 0.68 h
  concentration at 0.083 h: 5.43 ± 1.96 ng/mL
  concentration at 0.25 h: 5.22 ± 0.65 ng/mL
  concentration at 0.5 h: 3.71 ± 0.79 ng/mL
  concentration at 1 h: 3 ± 0.8 ng/mL
  concentration at 2 h: 1.65 ± 0.44 ng/mL
  concentration at 4 h: 1.02 ± 0.55 ng/mL
  concentration at 6 h: 0.63 ± 0.31 ng/mL
  concentration at 8 h: 0.63 ± 0.25 ng/mL
  concentration at 12 h: 0.56 ± 0.27 ng/mL
  MRT last: 3.35 ± 1.27 h
[9]; SD, po, p.o. 3 mg/kg
  AUC(0-inf): 39.9 ± 9.81 ng·h/mL
  AUC(0-t): 36.9 ± 9.57 ng·h/mL
  Cmax: 19.2 ± 16.4 ng/mL
  Tmax: 9 ± 10.2 min
  half-life: 2.47 ± 1.54 h
  concentration at 0.083 h: 18.9 ± 16.6 ng/mL
  concentration at 0.25 h: 9.25 ± 4.57 ng/mL
  concentration at 0.5 h: 7.42 ± 3.58 ng/mL
  concentration at 1 h: 6.3 ± 3.02 ng/mL
  concentration at 2 h: 4.07 ± 0.73 ng/mL
  concentration at 4 h: 3.5 ± 0.73 ng/mL
  concentration at 6 h: 2.35 ± 0.96 ng/mL
  concentration at 8 h: 1.95 ± 0.51 ng/mL
  concentration at 12 h: 0.84 ± 0.26 ng/mL
  MRT last: 4.61 ± 1.49 h
[9]; SD, po, p.o. 10 mg/kg
  AUC(0-inf): 107 ± 30.2 ng·h/mL
  AUC(0-t): 104 ± 29.4 ng·h/mL
  Cmax: 60.9 ± 44.9 ng/mL
  Tmax: 9 ± 10.2 min
  half-life: 2.31 ± 1.32 h
  concentration at 0.083 h: 60.7 ± 45.1 ng/mL
  concentration at 0.25 h: 20.5 ± 8.3 ng/mL
  concentration at 0.5 h: 15.9 ± 4.1 ng/mL
  concentration at 1 h: 10.2 ± 3.5 ng/mL
  concentration at 2 h: 7.1 ± 2.7 ng/mL
  concentration at 4 h: 5.63 ± 2.23 ng/mL
  concentration at 6 h: 4.39 ± 2.71 ng/mL
  concentration at 8 h: 3.61 ± 2.13 ng/mL
  concentration at 12 h: 3.18 ± 1.43 ng/mL
  MRT last: 7.73 ± 2.79 h
[9]; SD, po, p.o. 10 mg/kg, 24 h
  concentration at 24 h: 1.04 ± 0.66 ng/mL
[9]; SD, po, printed in the p.o. 3 mg/kg column, read-out: F
  bioavailability: 5.59%
[9]; Sprague-Dawley (SD), oral administration (1–10 mg/kg), read-out: bioavailability
  bioavailability: ~6%
[10]
  dose excreted: 0.004%
[11]
  percent of remaining: 100.00%
Forced swim rats; forced swim rats, 1, 3, and 10 mg/kg
  antidepressant-like effect: marked acute antidepressant-like effects
Forced swim rats; series of rat behavior models, 1–10 mg/kg oral dosing
  antidepressant-like and anxiolytic-like effects: significant antidepressant-like and anxiolytic-like effects
